Source: ChEMBL document CHEMBL1201862, “PubChem BioAssay data set” (2004)
Active and inactive are the calls of the source.

Assays:
[1] = luciferase reporter signal suppression in cells – H4 neuroglioma cells, luminescence, dose response (AID 1990); format: functional, cell-based
[2] = Luminescence Cell-Based Dose Response HTS to Identify Inhibitors of 5'UTR Stem-Loop Driven Prion Protein mRNA Translation in H4 Neuroglioblastoma Cells. [Related pubchem assays: 1827 (Project Summary), 1813 (Primary HTS)]; format: functional
[3] = alpha-synuclein stem-loop luciferase translation blockers – H4 neuroglioma cells, luminescence, confirmation (AID 1988); format: functional, cell-based
[4] = target: T1, Replicative DNA helicase DnaB (Mycobacterium tuberculosis, UniProt P9WMR3); experiment: DnaB intein splicing inhibitors, dose response, biochemical, cell-free fluorescence (AID 449749); format: functional
T1 sequence (P9WMR3 whole entry): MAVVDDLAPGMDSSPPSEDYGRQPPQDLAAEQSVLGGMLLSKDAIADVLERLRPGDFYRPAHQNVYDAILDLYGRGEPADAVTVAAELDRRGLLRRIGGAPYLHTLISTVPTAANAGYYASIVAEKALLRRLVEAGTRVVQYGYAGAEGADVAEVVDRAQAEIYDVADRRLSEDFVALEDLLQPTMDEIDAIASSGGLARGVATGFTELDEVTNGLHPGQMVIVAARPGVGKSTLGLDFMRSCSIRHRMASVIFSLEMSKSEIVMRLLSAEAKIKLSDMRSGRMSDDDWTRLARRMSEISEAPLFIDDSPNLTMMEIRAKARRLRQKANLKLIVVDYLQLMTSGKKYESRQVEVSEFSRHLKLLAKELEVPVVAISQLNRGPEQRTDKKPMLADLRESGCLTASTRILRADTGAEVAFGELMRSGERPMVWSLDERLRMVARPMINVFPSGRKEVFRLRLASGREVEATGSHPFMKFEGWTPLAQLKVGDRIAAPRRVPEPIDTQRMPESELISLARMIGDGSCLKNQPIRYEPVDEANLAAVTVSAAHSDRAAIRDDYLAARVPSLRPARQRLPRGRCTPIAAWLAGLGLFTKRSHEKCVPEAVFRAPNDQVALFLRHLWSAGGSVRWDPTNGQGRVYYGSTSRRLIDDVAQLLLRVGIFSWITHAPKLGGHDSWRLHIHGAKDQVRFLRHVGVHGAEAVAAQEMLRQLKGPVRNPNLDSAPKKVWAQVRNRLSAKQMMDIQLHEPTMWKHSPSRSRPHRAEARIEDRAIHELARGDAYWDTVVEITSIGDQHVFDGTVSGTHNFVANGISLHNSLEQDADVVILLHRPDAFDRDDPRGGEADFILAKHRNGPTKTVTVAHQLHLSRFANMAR

[5] = target: T2, Protein RecA (Mycobacterium tuberculosis, UniProt P9WHJ3); experiment: Fluorescence Cell-Free Homogeneous Dose Retest to Identify Inhibitors of RecA-Intein Splicing Activity. [Related pubchem assays (depositor defined):AID2097, AID2223, AID489010, AID492950]; format: functional
T2 sequence (P9WHJ3 whole entry): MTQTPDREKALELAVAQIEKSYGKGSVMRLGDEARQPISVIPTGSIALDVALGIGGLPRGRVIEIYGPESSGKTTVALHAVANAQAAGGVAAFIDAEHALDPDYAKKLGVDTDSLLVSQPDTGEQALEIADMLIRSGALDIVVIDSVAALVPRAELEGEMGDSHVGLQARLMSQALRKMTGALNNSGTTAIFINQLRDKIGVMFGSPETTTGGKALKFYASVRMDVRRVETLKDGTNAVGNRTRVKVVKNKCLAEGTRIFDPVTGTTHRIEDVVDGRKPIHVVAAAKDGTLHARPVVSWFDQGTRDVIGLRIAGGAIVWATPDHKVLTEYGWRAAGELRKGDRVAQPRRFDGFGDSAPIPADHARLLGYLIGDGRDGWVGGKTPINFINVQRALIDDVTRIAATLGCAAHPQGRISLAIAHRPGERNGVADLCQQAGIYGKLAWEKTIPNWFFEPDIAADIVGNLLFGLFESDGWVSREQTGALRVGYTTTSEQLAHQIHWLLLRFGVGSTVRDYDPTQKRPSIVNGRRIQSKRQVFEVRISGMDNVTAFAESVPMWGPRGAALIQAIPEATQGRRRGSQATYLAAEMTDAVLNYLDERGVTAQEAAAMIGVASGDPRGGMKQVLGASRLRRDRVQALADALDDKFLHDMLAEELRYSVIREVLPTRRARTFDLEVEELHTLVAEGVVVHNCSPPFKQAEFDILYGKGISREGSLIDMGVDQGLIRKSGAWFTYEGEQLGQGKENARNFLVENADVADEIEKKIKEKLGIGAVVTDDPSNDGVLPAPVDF

[6] = target: T3, Protein disulfide-isomerase (Homo sapiens, UniProt P07237); experiment: inhibition of PDI-driven insulin aggregation – biochemical, turbidity, absorbance, cherry-picked samples, dose response (AID 602350); format: functional
T3 sequence (P07237 whole entry): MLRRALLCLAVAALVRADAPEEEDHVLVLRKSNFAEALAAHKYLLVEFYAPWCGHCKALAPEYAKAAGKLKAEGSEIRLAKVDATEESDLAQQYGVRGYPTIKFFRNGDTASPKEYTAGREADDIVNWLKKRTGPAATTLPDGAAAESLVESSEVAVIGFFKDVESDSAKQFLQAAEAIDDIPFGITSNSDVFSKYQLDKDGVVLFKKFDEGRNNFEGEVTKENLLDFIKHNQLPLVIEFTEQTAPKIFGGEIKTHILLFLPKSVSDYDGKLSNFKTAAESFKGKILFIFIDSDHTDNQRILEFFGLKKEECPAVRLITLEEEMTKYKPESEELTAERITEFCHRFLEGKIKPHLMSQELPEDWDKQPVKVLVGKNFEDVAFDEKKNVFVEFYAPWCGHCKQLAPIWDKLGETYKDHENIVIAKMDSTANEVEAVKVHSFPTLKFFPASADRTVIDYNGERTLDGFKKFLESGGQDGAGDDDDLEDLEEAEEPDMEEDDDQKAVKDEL

[7] = target: Protein disulfide-isomerase A6 (Homo sapiens, UniProt Q15084); experiment: Secondary Assay for Selectivity of PDI Inhibitors (against ERp5) Measured in Biochemical System Using Plate Reader - 2137-04_Inhibitor_Dose_DryPowder_Activity_Set3.
Sequence of Protein disulfide-isomerase A6 (Q15084 whole entry): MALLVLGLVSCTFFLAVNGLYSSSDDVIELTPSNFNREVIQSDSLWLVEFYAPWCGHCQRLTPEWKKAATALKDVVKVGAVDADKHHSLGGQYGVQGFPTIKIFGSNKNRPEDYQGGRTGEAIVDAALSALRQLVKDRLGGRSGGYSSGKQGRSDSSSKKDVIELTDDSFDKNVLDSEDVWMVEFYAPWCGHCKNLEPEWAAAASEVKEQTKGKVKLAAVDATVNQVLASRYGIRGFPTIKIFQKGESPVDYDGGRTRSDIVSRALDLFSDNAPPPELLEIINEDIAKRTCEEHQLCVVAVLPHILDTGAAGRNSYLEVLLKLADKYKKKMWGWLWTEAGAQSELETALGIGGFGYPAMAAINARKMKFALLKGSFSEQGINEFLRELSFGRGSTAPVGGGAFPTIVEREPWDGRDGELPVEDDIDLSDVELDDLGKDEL

[8] = loss of viability in embryonic kidney cells – cell-based, HEK293T, ATP luminescence, dry powder, cytotoxicity control, dose response (AID 652119); format: functional; details: HEK293
[9] = target: T3, Protein disulfide-isomerase; experiment: inhibition of PDI-mediated insulin reduction – biochemical, turbidity, dry powder samples, set 2, confirmation (AID 652146)
[10] = target: Latent membrane protein 1 (Human herpesvirus 4 (strain B95-8), UniProt P03230); experiment: LMP1 TES1 pathway selectivity over dsRED control – imaging, HEK293T, dual-color eGFP/dsRED, cherry-picks, selectivity assay for LMP1 NF-kB inhibitor project, dose response (AID 588398); format: functional, cell-based
Sequence of Latent membrane protein 1 (P03230 whole entry, the tested form may be a part): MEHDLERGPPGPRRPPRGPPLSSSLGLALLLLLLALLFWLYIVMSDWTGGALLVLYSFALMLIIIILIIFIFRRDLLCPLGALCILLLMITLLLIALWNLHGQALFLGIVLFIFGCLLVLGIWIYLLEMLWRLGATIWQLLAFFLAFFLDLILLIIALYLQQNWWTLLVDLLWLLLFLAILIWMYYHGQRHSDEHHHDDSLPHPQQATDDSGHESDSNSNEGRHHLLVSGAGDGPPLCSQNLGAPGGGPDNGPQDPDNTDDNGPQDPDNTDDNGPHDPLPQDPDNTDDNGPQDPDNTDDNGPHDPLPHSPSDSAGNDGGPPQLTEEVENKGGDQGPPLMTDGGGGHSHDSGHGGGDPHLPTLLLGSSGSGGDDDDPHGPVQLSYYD

[11] = target: Disintegrin and metalloproteinase domain-containing protein 17 (Homo sapiens, UniProt P78536); experiment: exosite inhibitors of ADAM17, dose response, biochemical (AID 743260)
Sequence of Disintegrin and metalloproteinase domain-containing protein 17 (P78536 whole entry, the tested form may be a part): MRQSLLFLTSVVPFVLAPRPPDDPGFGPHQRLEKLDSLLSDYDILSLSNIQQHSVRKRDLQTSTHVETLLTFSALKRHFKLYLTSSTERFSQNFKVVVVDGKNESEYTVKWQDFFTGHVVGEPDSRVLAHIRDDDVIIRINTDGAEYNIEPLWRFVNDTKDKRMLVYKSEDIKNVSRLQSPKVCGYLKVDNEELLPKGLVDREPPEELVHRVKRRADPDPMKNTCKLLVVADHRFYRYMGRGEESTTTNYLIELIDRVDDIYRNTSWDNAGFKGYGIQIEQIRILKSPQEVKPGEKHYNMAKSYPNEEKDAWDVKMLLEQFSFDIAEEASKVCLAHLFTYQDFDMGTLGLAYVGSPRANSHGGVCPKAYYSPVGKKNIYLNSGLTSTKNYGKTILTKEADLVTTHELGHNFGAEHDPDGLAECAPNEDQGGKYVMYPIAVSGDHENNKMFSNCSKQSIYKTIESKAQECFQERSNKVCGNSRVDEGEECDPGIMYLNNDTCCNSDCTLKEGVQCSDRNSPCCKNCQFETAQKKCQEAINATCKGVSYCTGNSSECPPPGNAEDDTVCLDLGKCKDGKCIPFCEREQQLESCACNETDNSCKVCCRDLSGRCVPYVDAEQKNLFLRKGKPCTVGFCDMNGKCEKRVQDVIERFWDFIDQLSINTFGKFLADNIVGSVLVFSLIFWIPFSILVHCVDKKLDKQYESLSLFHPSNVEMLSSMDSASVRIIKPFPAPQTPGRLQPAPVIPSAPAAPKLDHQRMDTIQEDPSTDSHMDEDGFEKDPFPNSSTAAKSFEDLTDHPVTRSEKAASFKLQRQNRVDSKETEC

[12] = inhibition of ADAM10 peptide cleavage – biochemical, FRET peptide substrate, recombinant human ADAM10, selectivity assay for ADAM17 exosite inhibitor project, dose response (AID 743259);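 note: ADAM10 enzyme cleaving a FRET peptide substrate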
[13] = THP-1 cell cytotoxicity, dose response, cytotoxicity control for non-replicating M. tuberculosis project (AID 489025); format: functional
[14] = Vero E6 cell cytotoxicity, dose response, cytotoxicity control for non-replicating M. tuberculosis project, secondary assay (AID 492998); format: functional, VeroE6; details: Vero C1008
[15] = cells; format: functional
[16] = test system: CHO; experiment: CHO cell viability loss, potency – luminescence, cytotoxicity control for TLR9-MyD88 binding inhibitor project, dose response (AID 588339); format: functional, cell-based, hamster; details: Cricetulus griseus;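 note: CHO cells stably coexpressing TLR9 and MyD88 fusions from primary screen; compound exposure lasted 48 hours before viability readout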
[17] = target: Beta Lactamase (Pseudomonas aeruginosa, UniProt Q932Y6); experiment: BLA reporter interference, concentration series – BLA reporter cells, FRET fluorescence, artefact control for TLR9-MyD88 binding inhibitor project, dose response (AID 588341); format: cell-based;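 note: cell based assay in CHO-K1 cells stably expressing beta-lactamase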
Sequence of Beta Lactamase (Q932Y6 whole entry): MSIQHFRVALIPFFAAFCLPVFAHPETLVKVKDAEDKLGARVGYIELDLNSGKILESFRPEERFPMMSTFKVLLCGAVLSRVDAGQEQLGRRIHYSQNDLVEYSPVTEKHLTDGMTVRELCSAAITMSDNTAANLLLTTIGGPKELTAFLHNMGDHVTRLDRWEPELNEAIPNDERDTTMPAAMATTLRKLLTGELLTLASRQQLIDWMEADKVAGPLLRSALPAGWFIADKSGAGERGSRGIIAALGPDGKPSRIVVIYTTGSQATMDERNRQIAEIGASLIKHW

[18] = target: DNA dC->dU-editing enzyme APOBEC-3G (Homo sapiens, UniProt Q9HC16); experiment: inhibition of APOBEC3G ssDNA deamination – biochemical, fluorescence, single-stranded DNA substrate, SAR follow-up (AID 602136); format: functional; details: read-out: IC50_Mean
[19] = target: DNA dC->dU-editing enzyme APOBEC-3A (Homo sapiens, UniProt P31941); experiment: SAR analysis of small molecule inhibitors of APOBEC3A DNA Deaminase via a fluorescence-based single-stranded DNA deaminase assay.; format: functional; details: read-out: IC50_Mean
Sequence of DNA dC->dU-editing enzyme APOBEC-3A (P31941 whole entry): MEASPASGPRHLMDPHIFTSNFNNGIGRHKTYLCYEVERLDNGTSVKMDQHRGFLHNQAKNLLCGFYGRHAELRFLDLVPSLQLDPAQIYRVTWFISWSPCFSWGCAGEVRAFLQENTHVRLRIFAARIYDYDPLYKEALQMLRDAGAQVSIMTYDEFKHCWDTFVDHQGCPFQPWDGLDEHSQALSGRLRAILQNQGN

[20] = target: ALK tyrosine kinase receptor (Homo sapiens, UniProt Q9UM73); format: functional;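 note: ALK tested as one member of a kinase panel screen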
Sequence of ALK tyrosine kinase receptor (Q9UM73 whole entry): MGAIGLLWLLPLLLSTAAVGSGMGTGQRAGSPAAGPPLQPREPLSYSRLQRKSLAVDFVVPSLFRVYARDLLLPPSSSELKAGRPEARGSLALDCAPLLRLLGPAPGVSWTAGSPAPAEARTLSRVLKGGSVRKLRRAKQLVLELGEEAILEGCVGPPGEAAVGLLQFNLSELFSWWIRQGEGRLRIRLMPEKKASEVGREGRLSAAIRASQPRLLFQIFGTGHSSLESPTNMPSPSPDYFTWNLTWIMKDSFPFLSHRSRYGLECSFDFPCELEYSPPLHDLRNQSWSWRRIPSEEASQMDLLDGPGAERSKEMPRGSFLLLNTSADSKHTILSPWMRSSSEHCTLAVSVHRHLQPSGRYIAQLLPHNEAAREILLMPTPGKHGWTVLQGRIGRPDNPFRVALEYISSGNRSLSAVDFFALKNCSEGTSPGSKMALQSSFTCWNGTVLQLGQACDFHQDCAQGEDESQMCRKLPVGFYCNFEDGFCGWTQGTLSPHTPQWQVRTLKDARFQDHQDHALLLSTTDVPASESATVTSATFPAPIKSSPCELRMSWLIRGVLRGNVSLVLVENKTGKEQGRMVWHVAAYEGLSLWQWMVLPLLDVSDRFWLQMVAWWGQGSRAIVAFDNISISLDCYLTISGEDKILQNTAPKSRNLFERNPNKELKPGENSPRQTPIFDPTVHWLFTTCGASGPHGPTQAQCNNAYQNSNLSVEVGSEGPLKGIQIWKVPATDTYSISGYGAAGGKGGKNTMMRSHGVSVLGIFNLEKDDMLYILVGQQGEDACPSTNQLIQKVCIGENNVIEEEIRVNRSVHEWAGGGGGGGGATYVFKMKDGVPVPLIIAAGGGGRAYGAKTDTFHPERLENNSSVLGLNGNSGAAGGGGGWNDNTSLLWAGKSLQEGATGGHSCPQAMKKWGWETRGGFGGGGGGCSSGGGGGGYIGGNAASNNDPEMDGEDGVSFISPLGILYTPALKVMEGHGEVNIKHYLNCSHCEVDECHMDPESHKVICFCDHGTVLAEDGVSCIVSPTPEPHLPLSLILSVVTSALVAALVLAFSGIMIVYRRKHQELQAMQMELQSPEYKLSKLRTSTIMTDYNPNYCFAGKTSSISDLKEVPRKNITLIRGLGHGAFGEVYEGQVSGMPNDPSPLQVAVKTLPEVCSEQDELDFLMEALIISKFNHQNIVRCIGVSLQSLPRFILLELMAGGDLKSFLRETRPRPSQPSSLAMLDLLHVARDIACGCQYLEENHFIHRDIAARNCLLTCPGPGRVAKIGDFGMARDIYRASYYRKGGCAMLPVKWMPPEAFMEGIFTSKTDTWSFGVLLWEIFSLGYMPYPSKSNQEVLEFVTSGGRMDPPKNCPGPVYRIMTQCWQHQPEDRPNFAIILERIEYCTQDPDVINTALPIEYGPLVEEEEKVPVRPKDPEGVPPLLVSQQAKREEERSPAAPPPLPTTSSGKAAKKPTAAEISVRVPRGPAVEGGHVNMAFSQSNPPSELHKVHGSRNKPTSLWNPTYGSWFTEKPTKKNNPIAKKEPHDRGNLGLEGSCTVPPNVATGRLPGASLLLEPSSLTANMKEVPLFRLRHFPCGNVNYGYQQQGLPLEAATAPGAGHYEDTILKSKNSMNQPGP

[21] = target: Aurora kinase A (Homo sapiens, UniProt O14965); format: functional;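 note: value from the Navigating the Kinome kinase panel profiling, panel entry STK6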
Sequence of Aurora kinase A (O14965 whole entry): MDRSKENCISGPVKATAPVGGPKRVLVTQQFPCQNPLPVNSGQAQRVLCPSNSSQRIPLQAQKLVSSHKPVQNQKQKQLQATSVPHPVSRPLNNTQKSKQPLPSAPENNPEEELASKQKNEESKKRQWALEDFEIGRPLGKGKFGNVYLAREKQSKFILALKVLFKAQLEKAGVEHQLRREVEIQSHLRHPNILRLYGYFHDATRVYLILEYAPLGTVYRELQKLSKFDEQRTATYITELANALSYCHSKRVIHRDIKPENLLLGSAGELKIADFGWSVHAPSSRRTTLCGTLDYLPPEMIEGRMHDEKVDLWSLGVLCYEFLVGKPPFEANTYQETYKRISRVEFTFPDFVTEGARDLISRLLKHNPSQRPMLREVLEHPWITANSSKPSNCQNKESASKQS

[22] = target: Focal adhesion kinase 1 (Homo sapiens, UniProt Q05397); format: functional;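 note: measured as one member of a kinome panel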
[23] = target: Aurora kinase B (Homo sapiens, UniProt Q96GD4); format: functional
Sequence of Aurora kinase B (Q96GD4 whole entry): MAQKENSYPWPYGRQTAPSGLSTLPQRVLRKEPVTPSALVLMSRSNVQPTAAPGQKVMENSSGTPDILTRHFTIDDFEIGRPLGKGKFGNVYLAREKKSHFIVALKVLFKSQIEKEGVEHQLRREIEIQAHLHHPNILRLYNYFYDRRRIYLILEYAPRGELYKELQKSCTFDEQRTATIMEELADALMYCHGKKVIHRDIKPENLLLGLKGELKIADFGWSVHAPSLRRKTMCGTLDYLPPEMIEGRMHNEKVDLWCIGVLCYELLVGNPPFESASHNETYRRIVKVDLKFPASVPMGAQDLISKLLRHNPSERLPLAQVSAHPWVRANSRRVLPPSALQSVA

In the case of `CCOC(=O)C1(CCOc2ccccc2)CCN(Cc2ccc(O)c(Cl)c2)CC1`, the EC50 [1] is reported as > 120 µM (not active), the EC50 [2] is reported as > 120 µM (not active) and the EC50 [3] is reported as > 120 µM (not active). For the same molecule, the AC50 [4] was 99.6 µM (active), the EC50 [5] was > 380 µM (inactive) and the AC50 [6] was 0.599 µM (active). The AC50 [7] was 30 µM (inactive), the AC50 [8] was > 52 µM (inactive) and the AC50 [9] was 2 µM (active).

With `COc1ccc(CN(C(=O)c2nsc(Cl)c2Cl)C(C(=O)NC2CCCC2)c2ccc(C)cc2)cc1` (stereo not drawn) the AC50 [10] was 27.6 µM (active), the IC50 [11] was > 69.5 µM (inactive) and the IC50 [12] was > 7.72 µM (active).

With `CC(=O)Oc1ccc(N2C(=O)c3cccc4c([N+](=O)[O-])ccc(c34)C2=O)cc1` the CC50 [13] was 6.74 µM (active), the CC50 [14] was > 20 µM (active) and the IC50 [15] was 9.16 µM (active). The IC50 [16] was 6.34 µM (active) and the IC50 [17] was 4.06 µM (active).

With `COc1ccc(-c2nnc(SCc3coc(-c4cccs4)n3)[nH]2)cc1` the IC50 [18] was > 99 µM (inactive) and the IC50 [19] was > 99 µM (inactive).

With `Cc1cc(N2CCOCC2)cc2[nH]c(-c3c(NCCc4ccccc4)cc[nH]c3=O)nc12` the Ki [20] was 0.126 µM (active), the Ki [21] was 0.794 µM (active) and the Ki [22] was > 1.58 µM (inactive). The Ki [23] was 0.1 µM (active).
